Results from US6737383B1, “Herbicidal oxadiazolidines” (priority 1999, dated 2004).

Legend:
smallflower flatsedge = assay: Test B flood test smallflower flatsedge; type: in vivo, Cyperus difformis; settings: Pre-emergence
Method in brief: (§1)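 Flood test on plants grown to the 2-leaf stage; treated plants kept in greenhouse twelve to sixteen days, then visually rated against controls on a 0 (no effect) to 10 (complete control) scale.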

crabgrass = assay: Test B pre/postemergence crabgrass; type: in vivo, Digitaria sanguinalis
Method in brief: (§2)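 Response is a visual 0-to-10 score relative to untreated plants, where 0 means no effect and 10 means complete control, taken twelve to sixteen days after application. Treatments went onto soil at planting and onto foliage of 1- to 4-leaf plants, using a surfactant-containing non-phytotoxic solvent.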

surinam grass = assay: Test B pre/postemergence surinam grass; type: in vivo, Brachiaria decumbens
Method in brief: as §2

velvetleaf = assay: Test B pre/postemergence velvetleaf; type: in vivo, Abutilon theophrasti
Method in brief: as §2

duck salad = assay: Test B flood test duck salad; type: in vivo, Heteranthera limosa; settings: Pre-emergence
Method in brief: as §1

wild oat = assay: Test B pre/postemergence wild oat; type: in vivo, Avena fatua
Method in brief: as §2

corn = assay: Test B pre/postemergence corn; type: in vivo, Zea mays
Method in brief: as §2

bedstraw = assay: Test B pre/postemergence bedstraw; type: in vivo, Galium aparine; settings: Preemergence; for Bedstraw plant response rating: scale of 0 to 10 where 0 is no effect and 10 is complete control
Method in brief: as §2

blackgrass = assay: Test B pre/postemergence blackgrass; type: in vivo, Alopecurus myosuroides
Method in brief: as §2

sugar beet = assay: Test B pre/postemergence sugar beet; type: in vivo, Beta vulgaris
Method in brief: as §2

rice = assay: Test B flood test rice; type: in vivo, Oryza sativa; settings: Pre-emergence
Method in brief: as §1

soybean = assay: Test B pre/postemergence soybean; type: in vivo, Glycine max
Method in brief: as §2

cocklebur = assay: Test B pre/postemergence cocklebur; type: in vivo, Xanthium strumarium
Method in brief: as §2

bamyardgrass = assay: Test B flood test barnyardgrass; type: in vivo, Echinochloa crus-galli; settings: Pre-emergence
Method in brief: as §1

wheat = assay: Test B pre/postemergence wheat; type: in vivo, Triticum aestivum
Method in brief: as §2

purple nutsedge = assay: Test B pre/postemergence purple nutsedge; type: in vivo, Cyperus rotundus
Method in brief: as §2

[1] = Rate 1000 g/ha, scale 0 to 10 (0 no effect, 10 complete control)
[2] = Rate 125 g/ha, flood test species, scale 0 to 10 where 0 is no effect and 10 is complete control
[3] = Rate 250 g/ha, flood-test species, scale 0 to 10, 0 is no effect, 10 is complete control
[4] = Rate 500 g/ha, flood test species, scale 0 to 10 (0 no effect, 10 complete control)
[5] = Postemergence, Rate 125 g/ha, scale 0 to 10, 0 is no effect, 10 is complete control
[6] = Postemergence, Rate 250 g/ha, scale 0 to 10, 0 is no effect, 10 is complete control
[7] = Postemergence, Rate 1000 g/ha, scale 0 to 10 (0 no effect, 10 complete control)
[8] = Preemergence, Rate 250 g/ha, scale of 0 to 10 where 0 is no effect and 10 is complete control
[9] = Preemergence, Rate 500 g/ha, scale of 0 to 10 where 0 is no effect and 10 is complete control
[10] = Rate 500 g/ha, Postemergence, scale 0 to 10, 0 no effect, 10 complete control
[11] = Rate 1000 g/ha, Preemergence, scale 0 to 10 (0 no effect, 10 complete control)

For `CCOC(=O)C(C)N(C(=O)n1oc(=O)n(C)c1=O)c1ccc(F)cc1` (centres unmarked) [Compound 365], the “S. Flatsedge plant response rating” value (smallflower flatsedge; [1]) was 0, the “S. Flatsedge plant response rating” value (smallflower flatsedge; [2]) was 0 and the “S. Flatsedge plant response rating” value (smallflower flatsedge; [3]) was 0. For the same molecule, the “S. Flatsedge plant response rating” value (smallflower flatsedge; [4]) was 0, the “Plant response rating, Crabgrass” value (crabgrass; [5]) was 0 and the “Plant response rating, Crabgrass” value (crabgrass; [6]) was 0. For the same molecule, the “Crabgrass plant response rating” value (crabgrass; [7]) was 0, the “Crabgrass plant response rating (0 to 10 scale)” value (crabgrass; Preemergence, Rate 125 g/ha) was 0 and the “Crabgrass plant response rating” value (crabgrass; [8]) was 0. For the same molecule, the “Crabgrass plant response rating” value (crabgrass; [9]) was 4, the “Plant response rating, Crabgrass” value (crabgrass; [10]) was 0 and the “Plant response rating, Crabgrass” value (crabgrass; [11]) was 8. The “Plant response rating, B. signalgrass” value (surinam grass; [5]) was 0, the “Plant response rating, B. signalgrass” value (surinam grass; [6]) was 0 and the “B. signalgrass plant response rating” value (surinam grass; [7]) was 0. The “B. signalgrass plant response rating (0 to 10 scale, 0 is no effect, 10 is complete control)” value (surinam grass; Preemergence, Rate 125 g/ha) was 0, the “B. signalgrass plant response rating” value (surinam grass; [8]) was 0 and the “B. signalgrass plant response rating” value (surinam grass; [9]) was 0. For the same molecule, the “Plant response rating, B. signalgrass” value (surinam grass; [10]) was 0, the “Plant response rating, B. signalgrass” value (surinam grass; [11]) was 0 and the “Plant response rating, Velvetleaf” value (velvetleaf; [5]) was 0. For the same molecule, the “Plant response rating, Velvetleaf” value (velvetleaf; [6]) was 0, the “Velvetleaf plant response rating” value (velvetleaf; [7]) was 0 and the “Velvetleaf plant response rating (0 to 10 scale)” value (velvetleaf; Preemergence, Rate 125 g/ha) was 0. For the same molecule, the “Velvetleaf plant response rating” value (velvetleaf; [8]) was 0, the “Velvetleaf plant response rating” value (velvetleaf; [9]) was 0 and the “Plant response rating, Velvetleaf” value (velvetleaf; [10]) was 0. The “Plant response rating, Velvetleaf” value (velvetleaf; [11]) was 0, the “Ducksalad plant response rating” value (duck salad; [1]) was 0 and the “Ducksalad plant response rating” value (duck salad; [2]) was 0. For the same molecule, the “Ducksalad plant response rating” value (duck salad; [3]) was 0, the “Ducksalad plant response rating” value (duck salad; [4]) was 0 and the “Plant response rating, Wild oats” value (wild oat; [5]) was 0. For the same molecule, the “Plant response rating, Wild oats” value (wild oat; [6]) was 0, the “Wild oats plant response rating” value (wild oat; [7]) was 0 and the “Wild oats plant response rating (0 to 10 scale)” value (wild oat; Preemergence, Rate 125 g/ha) was 0. The “Wild oats plant response rating” value (wild oat; [8]) was 0, the “Wild oats plant response rating” value (wild oat; [9]) was 0 and the “Plant response rating, Wild oats” value (wild oat; [10]) was 0. The “Plant response rating, Wild oats” value (wild oat; [11]) was 0, the “Plant response rating, Corn” value (corn; [5]) was 0 and the “Plant response rating, Corn” value (corn; [6]) was 0. For the same molecule, the “Corn plant response rating” value (corn; [7]) was 0, the “Corn plant response rating (0 to 10 scale)” value (corn; Preemergence, Rate 125 g/ha) was 0 and the “Corn plant response rating” value (corn; [8]) was 0. The “Corn plant response rating” value (corn; [9]) was 0, the “Plant response rating, Corn” value (corn; [10]) was 0 and the “Plant response rating, Corn” value (corn; [11]) was 0. For the same molecule, the “Bedstraw plant response rating (0 to 10 scale)” value (bedstraw; Rate 125 g/ha) was 0, the “Bedstraw plant response rating” value (bedstraw; Rate 250 g/ha) was 0 and the “Bedstraw plant response rating” value (bedstraw; Rate 500 g/ha) was 0. The “Plant response rating, Bedstraw” value (bedstraw; [1]) was 0, the “Plant response rating, Blackgrass” value (blackgrass; [5]) was 0 and the “Plant response rating, Blackgrass” value (blackgrass; [6]) was 0. For the same molecule, the “Blackgrass plant response rating” value (blackgrass; [7]) was 0, the “Blackgrass plant response rating (0 to 10 scale)” value (blackgrass; Preemergence, Rate 125 g/ha) was 0 and the “Blackgrass plant response rating” value (blackgrass; [8]) was 0. The “Blackgrass plant response rating” value (blackgrass; [9]) was 0, the “Plant response rating, Blackgrass” value (blackgrass; [10]) was 0 and the “Plant response rating, Blackgrass” value (blackgrass; [11]) was 0. The “Plant response rating, Sugarbeets” value (sugar beet; [5]) was 0, the “Plant response rating, Sugarbeets” value (sugar beet; [6]) was 0 and the “Sugarbeets plant response rating” value (sugar beet; [7]) was 0. For the same molecule, the “Sugarbeets plant response rating (0 to 10 scale)” value (sugar beet; Preemergence, Rate 125 g/ha) was 0, the “Sugarbeets plant response rating” value (sugar beet; [8]) was 0 and the “Sugarbeets plant response rating” value (sugar beet; [9]) was 0. For the same molecule, the “Plant response rating, Sugarbeets” value (sugar beet; [10]) was 0, the “Plant response rating, Sugarbeets” value (sugar beet; [11]) was 0 and the “Rice plant response rating” value (rice; [1]) was 0. For the same molecule, the “Rice plant response rating” value (rice; [2]) was 0, the “Rice plant response rating” value (rice; [3]) was 0 and the “Rice plant response rating” value (rice; [4]) was 0. For the same molecule, the “Plant response rating, Soybean” value (soybean; [5]) was 0, the “Plant response rating, Soybean” value (soybean; [6]) was 2 and the “Soybean plant response rating” value (soybean; [7]) was 3. The “Soybean plant response rating (0 to 10 scale)” value (soybean; Preemergence, Rate 125 g/ha) was 0, the “Soybean plant response rating” value (soybean; [8]) was 0 and the “Soybean plant response rating” value (soybean; [9]) was 0. For the same molecule, the “Plant response rating, Soybean” value (soybean; [10]) was 2, the “Plant response rating, Soybean” value (soybean; [11]) was 0 and the “Plant response rating, Cocklebur” value (cocklebur; [5]) was 0. For the same molecule, the “Plant response rating, Cocklebur” value (cocklebur; [6]) was 0, the “Cocklebur plant response rating” value (cocklebur; [7]) was 0 and the “Cocklebur plant response rating (0 to 10 scale)” value (cocklebur; Preemergence, Rate 125 g/ha) was 0. The “Cocklebur plant response rating” value (cocklebur; [8]) was 0, the “Cocklebur plant response rating” value (cocklebur; [9]) was 0 and the “Plant response rating, Cocklebur” value (cocklebur; [10]) was 0. The “Plant response rating, Cocklebur” value (cocklebur; [11]) was 0, the “Barnyardgrass plant response rating” value (bamyardgrass; [1]) was 0 and the “Barnyardgrass plant response rating” value (bamyardgrass; [2]) was 0. For the same molecule, the “Barnyardgrass plant response rating” value (bamyardgrass; [3]) was 0, the “Barnyardgrass plant response rating” value (bamyardgrass; [4]) was 0 and the “Plant response rating, Wheat” value (wheat; [5]) was 0. The “Plant response rating, Wheat” value (wheat; [6]) was 0, the “Wheat plant response rating” value (wheat; [7]) was 0 and the “Wheat plant response rating (0 to 10 scale)” value (wheat; Preemergence, Rate 125 g/ha) was 0. The “Wheat plant response rating” value (wheat; [8]) was 0, the “Wheat plant response rating” value (wheat; [9]) was 0 and the “Plant response rating, Wheat” value (wheat; [10]) was 0. The “Plant response rating, Wheat” value (wheat; [11]) was 0, the “Plant response rating, Nutsedge” value (purple nutsedge; [5]) was 0 and the “Plant response rating, Nutsedge” value (purple nutsedge; [6]) was 0. For the same molecule, the “Nutsedge plant response rating” value (purple nutsedge; [7]) was 0, the “Nutsedge plant response rating” value (purple nutsedge; [8]) was 0 and the “Nutsedge plant response rating” value (purple nutsedge; [9]) was 0. For the same molecule, the “Plant response rating, Nutsedge” value (purple nutsedge; [10]) was 0 and the “Plant response rating, Nutsedge” value (purple nutsedge; [11]) was 0.
